Data as given in paper PMC8842277, “Highly Antiproliferative Latonduine and Indolo[2,3-c]quinoline Derivatives: Complex Formation with Copper(II) Markedly Changes the Kinase Inhibitory Profile” (Journal of Medicinal Chemistry, 2022).

How the values were obtained:
[1] = system: HCT-116 colon carcinoma cells; assay: MTT assay, 96 h; type: cell-based, human
Source text: (§1) The oncosuppressor protein p53 controls the cellular response to DNA strand breaks induced by cytotoxic drugs or by radiation.[58] The p53 protein may enhance cell chemosensitivity by promoting apoptosis via different mechanisms including activation of proapoptotic genes such as bax and repression of antiapoptotic genes such as bcl-2 or in contrast increase chemoresistance by promoting p21-mediated and p21-independent growth arrest and DNA repair and by activation of antiapoptotic genes such as bcl-x. There is strong evidence that the modulation of drug sensitivity by p53 may be both drug- and cell type-specific.[59] […] Accordingly, essential differences in chemosensitivity were observed between cells with wild-type p53 gene and cells with knocked out p53 gene by homologous recombination.[60]
(§2) Human colonic adenocarcinoma cell lines Colo 205 doxorubicin-sensitive (ATCC-CCL-222) and Colo 320/MDR-LRP multidrug resistant over-expressing ABCB1 (MDR1)-LRP (ATCC-CCL-220.1) were purchased from LGC Promochem, Teddington, UK. The cells were cultured in an RPMI 1640 medium supplemented with 10% heat-inactivated fetal bovine serum, 2 mM L-glutamine, 1 mM Na-pyruvate, and 10 mM HEPES. The semi-adherent human colon cancer cells were detached with Trypsin-Versene (EDTA) solution for 5 min at 37 °C. An MRC-5 human embryonal lung fibroblast cell line (ATCC CCL-171) was purchased from LGC Promochem, Teddington, UK. The cells were cultured in Eagle’s minimal essential medium (EMEM, containing 4.5 g L^–1 glucose) supplemented with a non-essential amino acid mixture, a selection of vitamins, and 10% heat-inactivated fetal bovine serum. The HCT-116 colon carcinoma cells and isogenic p53-knock-out subline were a gift of Prof. Bert Vogelstein from The Johns Hopkins Oncology Center. Cells were cultured in McCoy’s 5A medium supplemented with 10% heat-inactivated fetal bovine serum and 4 mM L-glutamine. All cell lines were incubated at 37 °C, in a 5% CO2, 95% air atmosphere.
(§3) MRC-5 non-cancerous human embryonic lung fibroblast and human colonic adeno-carcinoma cell lines (doxorubicin-sensitive Colo 205 and multidrug resistant Colo 320 colonic adenocarcinoma cells) were used to determine the effect of compounds on cell growth. The effects of increasing concentrations of compounds on cell growth were tested in 96-well flat-bottomed microtiter plates. The compounds were dissolved in DMSO and stock solutions of 10 mM were prepared. These were further diluted in the appropriate cell culture medium by twofold serial dilution starting from 100 or 10 μM for the compounds. The adherent human embryonal lung fibroblast cells were cultured in 96-well flat-bottomed microtiter plates using EMEM supplemented with 10% heat-inactivated fetal bovine serum. The density of the cells was adjusted to 1 × 10^4 cells in 100 μL per well, the cells were seeded for 24 h at 37 °C, 5% CO2, then the medium was removed from the plates containing the cells, and the dilutions of compounds previously made in a separate plate were added to the cells in 200 μL. In the case of the colonic adenocarcinoma cells, the twofold serial dilutions of compounds were prepared in 100 μL of RPMI 1640, horizontally. The semi-adherent colonic adenocarcinoma cells were treated with Trypsin-Versene (EDTA) solution. They were adjusted to a density of 1 × 10^4 cells in 100 μL of RPMI 1640 medium and were added to each well, with the exception of the medium control wells. […]

[2] = system: HCT-116 isogenic p53-knock-out subline; assay: MTT assay, 96 h; type: cell-based, human; conditions: read-out: IC50 HCT-116p53ko, mean
Source text: as §1, §2, §3

[3] = system: Colo320 cells; assay: Apoptosis assay, Annexin-V-FITC/PI flow cytometry; conditions: 3 h induction
Experimental: An apoptosis assay was performed by flow cytometry via the analysis of multidrug-resistant Colo320 cells stained with Annexin-V-FITC and propidium iodide (PI).
Colo320 cells were treated at the indicated concentration of the compounds. The dual parametric dot plots combining Annexin-V (FL1) and PI (FL3) fluorescence show the viable cell population in the lower left quadrant Annexin-V–/PI– (Q4), the early apoptotic cells in the lower right quadrant Annexin-V+/PI– (Q3), and the late apoptotic and necrotic cells in the upper right quadrant Annexin-V+/PI+ (Q2).
The assay was carried out for selected compounds using an Annexin V-FITC Apoptosis Detection Kit (cat. no. APOAF-50TST) from Sigma according to the manufacturer’s instructions. The concentration of the Colo320 cell suspension was adjusted to approximately 0.5 × 10^6 cells/mL in an RPMI 1640 medium, and the cell suspension was distributed in 1 mL of aliquots into a 24-well plate and then incubated overnight at 37 °C and 5% CO2. On the following day, the medium was removed and replaced by 1 mL of RPMI medium containing the compounds except the control samples. […] After the incubation period, the samples were washed with PBS and fresh RPMI 1640 medium was added to the samples. The cells were incubated overnight at 37 °C and 5% CO2. The next day, 200 μL of 0.25% Trypsin (Trypsin-Versen) was added to the samples until cells appeared detached followed by the addition of 400 μL of RPMI 1640 medium supplemented with 10% bovine serum. The cells were collected in Eppendorf tubes and centrifuged at 2000g for 2 min. The harvested cells were resuspended in fresh serum-free RPMI 1640 culture medium. After this step, the apoptosis assay was carried out according to the instructions of the manufacturer. The fluorescence was analyzed immediately using a ParTec CyFlow flow cytometer (Partec GmbH, Münster, Germany).
• Apoptosis and DNA binding studies […]

N.N.[Cl][Pt][Cl] [cisplatin, reference compound]
IC50 [1]: 780 nM | IC50 [2]: 1700 nM | Cell death % Q1 ([3]; 15 µM): 1.64% | Early apoptosis % Q3 ([3]; 15 µM): 1.68% | Late apoptosis and necrosis % Q2 ([3]; 15 µM): 2.24% | Cell death % Q1 ([3]; 30 µM): 0.79% | Early apoptosis % Q3 ([3]; 30 µM): 4.90% | Late apoptosis and necrosis % Q2 ([3]; 30 µM): 4.07%
